Reference: US7273866B2, “2-aryl thiazole derivatives as KCNQ modulators” (Bristol-Myers Squibb Company, priority 2002, dated 2007)

Test system: KCNQ channels
Test: Thallium flux assay for KCNQ channel openers
Assay type: cell-based
Settings: HEK-293 cells stably transfected with a KCNQ family member; for Min. conc. response: minimal active concentration: lowest concentration giving signal amplitude >= four standard deviations of negative controls; for EC50: thallium flux, 10 point concentration series
Method: Thallium Flux Assay for KCNQ channel Openers. The thallium assay is a modification of that published by Weaver and is referenced in its entirety (Weaver, C. D. WO 02/31508, 2002).
Approximately 20,000 cells/well of an HEK-293 cell line stably transfected with one of the members of the KCNQ family were plated into clear-bottom, black-walled, poly-D-lysine coated, 384 well assay plates in 20 μl/well of low chloride plating medium. Low chloride plating medium was composed of the following: sodium gluconate, 109 mM; potassium gluconate, 5.4 mM; hemi-calcium gluconate, 3.6 mM; magnesium sulfate, 0.8 mM; sodium bicarbonate, 26.2 mM; sodium phosphate monobasic, 1.2 mM; glutamine, 2 mM; glucose, 5 mM; 4-(2-hydroxyethyl)-1-piperazineethanesulfonic acid (HEPES) (pH 7.3) 10 mM, MEM vitamin solution (10× concentration of vitamins, Gibco/LifeTechnologies 11120-052) and MEM amino acid solution (1× concentration of amino acids, Gibco/LifeTechnologies 11130-051).
Following overnight incubation in a 5% CO2 incubator at 37° C., the cells in the plates were loaded with 20 μl/well of a dye loading solution containing the commercially available thallium-sensitive fluorescent dye BTC-AM, the acetomethoxy ester of BTC (see U.S. Pat. No. 5,501,980) (2 μM) and pluronic acid F-127 (Molecular Probes P 6867) (0.02% w/v) in chloride free assay buffer. Chloride free assay buffer was composed of the following: sodium gluconate, 140 mM; potassium gluconate, 2.5 mM; hemi-calcium gluconate, 6 mM; hemi-magnesium gluconate, 2 mM; glucose, 5 mM; HEPES (pH 7.3), 10 mM.
Following incubation in the dye loading solution for from 45-90 min at room temperature, the dye loading solution was removed by aspiration and replaced with 40 μl/well of chloride free assay buffer.
Prior to addition to cell plates, test compound and standard compounds were dissolved in DMSO to 3 mM concentration. Compounds were then diluted from the 3 mM stock to 100-fold over the final assay concentration in DMSO. Finally, compounds in DMSO were diluted from 100-fold over the final assay concentration to 5-fold over the final assay concentration in chloride free assay buffer.
Ten μl/well of compounds at 5-fold over the final assay concentration were then added to the cell plates. This represents a 1:5 dilution, yielding the final test concentration. The wells used for test compounds were A1-P20. Wells A21-P22 contained a standard opener and a maximally efficacious concentration (positive control). Wells A23-P24 contained chloride free assay buffer containing 1% DMSO (negative control).
Following addition of test compounds, the plates were loaded onto the Molecular Devices FLIPR. The 488 nm line of the argon laser was used to excite the BTC and the emission filter was a 540(+/−30) nm. Images were collected at 1 Hz. Ten seconds of baseline were collected and then the FLIPR was used to add 13 μl/well of a stimulus buffer composed of 7.5 mM Tl2SO4 in chloride free assay buffer. Images were collected for an additional 60 seconds.
For data analysis, the amplitude of the average of the negative controls was subtracted from all wells. The amplitudes of the test compounds were then compared to the value of four standard deviations of the negative control wells. The lowest concentration of a test compound sufficient to generate a signal amplitude greater than or equal to four standard deviations from the amplitude of the negative controls was defined as the minimal active concentration.
For generating EC50 values, compounds were serially diluted in 1:3 volume increments to produce a 10 point concentration series. EC50 values were calculated by fitting the resulting amplitudes to a single-site logistic equation. EC50 was defined as the concentration of test compound required to yield 50% of the maximal response. Maximal response (Maximal opening) was the largest signal amplitude divided by the negative control amplitude generated by any concentration of a test compound. […]

| EC50 [nM] | SMILES | Min. conc. response [µM] |
| --- | --- | --- |
| 50 to 1000 | C[C@H](NC(=O)c1sc(-c2ncccc2CN2CCOCC2)nc1C(F)(F)F)c1cccc(-c2cccnc2)c1 [Example 67, (S)-2-[3-(4-morpholinylmethyl)pyridin-2-yl]-4-(trifluoromethyl)-N-[1-[3-(3-pyridinyl)phenyl]ethyl]-5-thiazolecarboxamide] | 30 |
| 1000 to 20000 | CCN(Cc1cccnc1-c1nc(C(F)(F)F)c(C(=O)N[C@@H](C)c2cccc(-c3cccnc3)c2)s1)C(C)C [Example 68, (S)-2-[3-[ethyl(2-propyl)aminomethyl]pyridin-2-yl]-4-(trifluoromethyl)-N-[1-[3-(3-pyridinyl)phenyl]ethyl]-5-thiazolecarboxamide] | 30 |
| 50 to 1000 | CCN(Cc1ccncc1)Cc1cccnc1-c1nc(C(F)(F)F)c(C(=O)N[C@@H](C)c2cccc(-c3cccnc3)c2)s1 [Example 69, (S)-2-[3-[(4-pyridinylmethyl)ethylaminomethyl]pyridin-2-yl]-4-(trifluoromethyl)-N-[H-[3-(3-pyridinyl)phenyl]ethyl]-5-thiazolecarboxamide] | 3 |
| 50 to 1000 | CCN(Cc1cccnc1-c1nc(C(F)(F)F)c(C(=O)NC(C)c2cccc(OC(F)(F)F)c2)s1)C(C)C (centres unmarked) [Example 70, 2-[3-[ethyl(2-propyl)aminomethyl]pyridin-2-yl]-4-(trifluoromethyl)-N-[1-[3-(trifluoromethoxy)phenyl]ethyl]-5-thiazolecarboxamide] | 3 |
| 50 to 1000 | Cc1cccnc1-c1nc(C(F)(F)F)c(C(=O)N[C@@H](C)c2cccc(-c3cccnc3)c2)s1 [Example 73, (S)-2-(3-methylpyridin-2-yl)-4-(trifluoromethyl)-N-[1-[3-(3-pyridinyl)phenyl]ethyl]-5-thiazolecarboxamide] | 0.3 |
| 1000 to 20000 | CC(NC(=O)c1sc(-c2ccccc2CN(C)C)nc1C(F)(F)F)c1cccc(OC(F)(F)F)c1 (centres unmarked) [Example 74] | 3 |
| 50 to 1000 | COc1cccc([C@H](C)NC(=O)c2sc(-c3ccccc3CN(C)C)nc2C(F)(F)F)c1 [Example 76] | 10 |
| 50 to 1000 | CCN(CC)Cc1ccccc1-c1nc(C(F)(F)F)c(C(=O)NCc2cccc(F)c2)s1 [Example 79] | 3 |
| 50 to 1000 | CCN(CC)Cc1ccccc1-c1nc(C(F)(F)F)c(C(=O)N[C@@H](C)c2cccc(OC)c2)s1 [Example 82] | 0.3 |
| – | CC(NC(=O)c1sc(-c2ccc(F)cc2)nc1C(F)(F)F)c1cccc(C(F)(F)F)c1 (centres unmarked) [Example 83] | 0.3 |
| – | COc1ccccc1-c1nc(C(F)(F)F)c(C(=O)NCc2ccccn2)s1 [Example 84] | 30 |
| – | COc1cccc(-c2nc(C(F)(F)F)c(C(=O)NCc3cccc(F)c3)s2)c1 [Example 85] | 30 |
| – | COc1cccc(-c2nc(C(F)(F)F)c(C(=O)NC(C)c3ccc4c(c3)CCO4)s2)c1 (centres unmarked) [Example 86] | 3 |
| – | CC(NC(=O)c1sc(-c2ccc3c(c2)OCO3)nc1C(F)(F)F)c1cccc(C(F)(F)F)c1 (centres unmarked) [Example 87] | 0.3 |
| – | COc1cccc(-c2nc(C(F)(F)F)c(C(=O)NCc3ccccn3)s2)c1 [Example 88] | 30 |
| – | COc1ccc(-c2nc(C(F)(F)F)c(C(=O)NC(C)c3cccc(C(F)(F)F)c3)s2)cc1OC (centres unmarked) [Example 89] | 30 |
| – | COc1ccc(-c2nc(C(F)(F)F)c(C(=O)NC(C)c3ccc(OC)c(OC)c3)s2)cc1OC (centres unmarked) [Example 90] | 10 |
| – | COc1ccc(-c2nc(C(F)(F)F)c(C(=O)NCc3cccc(OC(F)(F)F)c3)s2)cc1OC [Example 91] | 30 |
| – | CC(NC(=O)c1sc(-c2cccc(F)c2)nc1C(F)(F)F)c1cccc(C(F)(F)F)c1 (centres unmarked) [Example 92] | 3 |
| – | O=C(NCc1cccc(F)c1)c1sc(-c2cccc(F)c2)nc1C(F)(F)F [Example 93] | 10 |
| – | CC(NC(=O)c1sc(-c2cccc(F)c2)nc1C(F)(F)F)c1cccc(OC(F)(F)F)c1 (centres unmarked) [Example 95] | 0.3 |
| – | COc1ccccc1-c1nc(C(F)(F)F)c(C(=O)NC(C)c2cccc(Br)c2)s1 (centres unmarked) [Example 96] | 3 |

| EC50 [nM] | SMILES | Min. conc. response [µM] |
| --- | --- | --- |
| – | CC(NC(=O)c1sc(-c2cccc(N3CCOCC3)c2)nc1C(F)(F)F)c1cccc(OC(F)(F)F)c1 (centres unmarked) [Example 97] | 10 |
| – | CC(NC(=O)c1sc(-c2cccc(N3CCOCC3)c2)nc1C(F)(F)F)c1cccc(C(F)(F)F)c1 (centres unmarked) [Example 98] | 3 |
| – | CCN(CC)CCOc1ccccc1-c1nc(C(F)(F)F)c(C(=O)N[C@@H](C)c2cccc(N3CCOCC3)c2)s1 [Example 100] | 30 |
| – | CCN(CC)CCOc1ccccc1-c1nc(C(F)(F)F)c(C(=O)N[C@@H](C)c2cccc(OC)c2)s1 [Example 101] | 3 |
| – | CC(NC(=O)c1sc(-c2ccccc2F)nc1C(F)(F)F)c1cccc(N)c1 (centres unmarked) [Example 102] | 0.3 |
| – | CC(NC(=O)c1sc(-c2csc3ccccc23)nc1C(F)(F)F)c1cccc(CN2CCCC2)c1 (centres unmarked) [Example 103] | 0.3 |
| – | CCN(CC)CCOc1ccccc1-c1nc(C(F)(F)F)c(C(=O)NC(C)c2cccc(OC(F)(F)F)c2)s1 (centres unmarked) [Example 104] | 10 |
| – | CC(NC(=O)c1sc(-c2ccccc2CN(C)C)nc1C(F)(F)F)c1cccc(C(F)(F)F)c1 (centres unmarked) [Example 105] | 30 |
| – | CCN(CC)Cc1ccccc1-c1nc(C(F)(F)F)c(C(=O)NC(C)c2cccc(CN3CCOCC3)c2)s1 (centres unmarked) [Example 106] | 10 |
| – | CCN(CC)Cc1ccccc1-c1nc(C(F)(F)F)c(C(=O)NC(C)c2cccc(-c3cccnc3)c2)s1 (centres unmarked) [Example 107] | 30 |
| – | CC(NC(=O)c1sc(-c2ccccc2CN2CCOCC2)nc1C(F)(F)F)c1cccc(OC(F)(F)F)c1 (centres unmarked) [Example 108] | 0.3 |
| – | O=C(NCc1cccc(OC(F)(F)F)c1)c1sc(-c2ccccc2CN2CCOCC2)nc1C(F)(F)F [Example 109] | 3 |
| – | C[C@H](NC(=O)c1sc(-c2ccccc2CN2CCOCC2)nc1C(F)(F)F)c1cccc(N2CCOCC2)c1 [Example 110] | 3 |
| – | COc1cccc([C@H](C)NC(=O)c2sc(-c3ccccc3CN3CCOCC3)nc2C(F)(F)F)c1 [Example 111] | 0.3 |
| – | COc1cccc([C@H](C)NC(=O)c2sc(-c3ccccc3CN3CCN(C)CC3)nc2C(F)(F)F)c1 [Example 112] | 30 |
| – | CCN(Cc1ccncc1)Cc1ccccc1-c1nc(C(F)(F)F)c(C(=O)NC(C)c2cccc(OC(F)(F)F)c2)s1 (centres unmarked) [Example 113] | 0.3 |
| – | CCN(Cc1ccncc1)Cc1ccccc1-c1nc(C(F)(F)F)c(C(=O)NCc2cccc(OC)c2)s1 [Example 114] | 3 |
| – | CCN(Cc1ccncc1)Cc1ccccc1-c1nc(C(F)(F)F)c(C(=O)N[C@@H](C)c2cccc(N3CCOCC3)c2)s1 [Example 115] | 3 |
| – | CCN(Cc1ccncc1)Cc1ccccc1-c1nc(C(F)(F)F)c(C(=O)NC(C)c2cccc(CN3CCOCC3)c2)s1 (centres unmarked) [Example 116] | 3 |
| – | CCN(Cc1ccncc1)Cc1ccccc1-c1nc(C(F)(F)F)c(C(=O)NC(C)c2cccc(-c3cccnc3)c2)s1 (centres unmarked) [Example 117] | 0.3 |
| – | Cc1cccnc1-c1nc(C(F)(F)F)c(C(=O)N[C@@H](C)c2cccc(N3CCOCC3)c2)s1 [Example 118] | 10 |
| – | CC(NC(=O)c1sc(-c2ncccc2CN2CCOCC2)nc1C(F)(F)F)c1cccc(C(F)(F)F)c1 (centres unmarked) [Example 124] | 3 |
